Consider 22 molecules from ChEMBL document CHEMBL1909046, “DrugMatrix in vitro pharmacology data”.

Usually IC50 stands for the concentration that gives 50% inhibition. The Ki is the dissociation constant of the complex between target and ligand, obtained from inhibition or displacement.

Experiment [1] has as its target T1, Endothelin-1 receptor (Homo sapiens, UniProt P25101). Note: in other assays of this panel Not Active means under 50% inhibition at 10 µM.
T1 sequence (P25101 whole entry): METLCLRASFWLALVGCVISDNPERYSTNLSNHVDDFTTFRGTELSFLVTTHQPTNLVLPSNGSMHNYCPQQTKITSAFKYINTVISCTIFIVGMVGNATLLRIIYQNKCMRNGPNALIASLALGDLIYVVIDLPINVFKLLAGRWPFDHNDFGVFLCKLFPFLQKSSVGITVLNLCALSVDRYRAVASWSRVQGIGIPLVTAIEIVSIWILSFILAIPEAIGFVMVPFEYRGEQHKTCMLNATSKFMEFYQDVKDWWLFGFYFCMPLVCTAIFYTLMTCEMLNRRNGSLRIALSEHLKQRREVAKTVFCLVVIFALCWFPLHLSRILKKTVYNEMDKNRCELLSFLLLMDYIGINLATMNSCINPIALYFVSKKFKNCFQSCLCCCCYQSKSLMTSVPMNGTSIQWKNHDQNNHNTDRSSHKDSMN
It is filed as cell membranes, Membrane. As to conditions: cho-k1.

For experiment [2], the target named is Acetylcholinesterase (Homo sapiens, UniProt P22303). Description: DRUGMATRIX: Acetylcholinesterase enzyme inhibition (substrate: acetylthiocholine). The conditions noted are these: hek293; Not Active = under 50% inhibition at 10 µM. The class given is cell-based, HEK293.
The target of experiment [3] is T2, Alpha-2A adrenergic receptor (Homo sapiens, UniProt P08913). Note: in other assays of this panel Not Active means under 50% inhibition at 10 µM.
T2 sequence (P08913 whole entry): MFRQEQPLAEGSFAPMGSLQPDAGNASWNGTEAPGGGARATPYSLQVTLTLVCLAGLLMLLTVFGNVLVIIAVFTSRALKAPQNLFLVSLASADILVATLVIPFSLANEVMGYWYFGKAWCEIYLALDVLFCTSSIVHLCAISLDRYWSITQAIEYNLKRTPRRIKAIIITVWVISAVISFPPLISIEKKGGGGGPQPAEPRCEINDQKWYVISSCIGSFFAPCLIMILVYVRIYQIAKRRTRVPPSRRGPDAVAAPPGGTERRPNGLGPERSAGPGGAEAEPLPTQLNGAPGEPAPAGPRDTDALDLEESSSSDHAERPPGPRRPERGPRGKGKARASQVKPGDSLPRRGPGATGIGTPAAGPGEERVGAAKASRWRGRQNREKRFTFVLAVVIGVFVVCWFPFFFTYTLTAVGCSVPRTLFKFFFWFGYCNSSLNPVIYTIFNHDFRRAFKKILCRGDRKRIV
It is filed as cell membranes, Sf9, Membrane.

The target of experiment [4] is Nitric oxide synthase 1 (Rattus norvegicus, UniProt P29476). The class given is tissue-based, Cerebellum. Note: in other assays of this panel Not Active means under 50% inhibition at 10 µM.
Experiment [5] deals with Substance-P receptor (Homo sapiens, UniProt P25103). The class given is cell membranes, CHO, Membrane. As to conditions: cho.
In experiment [6] the target is T3, Muscarinic acetylcholine receptor M5 (Homo sapiens, UniProt P08912). Note: in other assays of this panel Not Active means under 50% inhibition at 10 µM.
T3 sequence (P08912 whole entry): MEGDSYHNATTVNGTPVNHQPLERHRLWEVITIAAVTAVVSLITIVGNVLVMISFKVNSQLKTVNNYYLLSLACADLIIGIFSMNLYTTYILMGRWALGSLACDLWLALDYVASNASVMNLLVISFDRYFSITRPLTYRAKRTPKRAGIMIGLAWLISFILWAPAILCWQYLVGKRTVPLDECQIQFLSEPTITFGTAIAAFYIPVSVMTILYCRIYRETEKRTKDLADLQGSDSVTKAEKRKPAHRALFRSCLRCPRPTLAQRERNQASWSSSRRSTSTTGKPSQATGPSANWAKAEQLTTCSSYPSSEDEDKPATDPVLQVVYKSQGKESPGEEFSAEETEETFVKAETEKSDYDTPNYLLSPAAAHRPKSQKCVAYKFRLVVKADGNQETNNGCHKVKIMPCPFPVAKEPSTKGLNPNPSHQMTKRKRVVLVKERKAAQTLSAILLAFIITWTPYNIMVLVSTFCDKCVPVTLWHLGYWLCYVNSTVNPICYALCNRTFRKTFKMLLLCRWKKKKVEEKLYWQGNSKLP
It is filed as cell membranes, CHO-K1, Membrane. As to conditions: cho-k1.

Acetylcholinesterase, sequence (P22303 whole entry): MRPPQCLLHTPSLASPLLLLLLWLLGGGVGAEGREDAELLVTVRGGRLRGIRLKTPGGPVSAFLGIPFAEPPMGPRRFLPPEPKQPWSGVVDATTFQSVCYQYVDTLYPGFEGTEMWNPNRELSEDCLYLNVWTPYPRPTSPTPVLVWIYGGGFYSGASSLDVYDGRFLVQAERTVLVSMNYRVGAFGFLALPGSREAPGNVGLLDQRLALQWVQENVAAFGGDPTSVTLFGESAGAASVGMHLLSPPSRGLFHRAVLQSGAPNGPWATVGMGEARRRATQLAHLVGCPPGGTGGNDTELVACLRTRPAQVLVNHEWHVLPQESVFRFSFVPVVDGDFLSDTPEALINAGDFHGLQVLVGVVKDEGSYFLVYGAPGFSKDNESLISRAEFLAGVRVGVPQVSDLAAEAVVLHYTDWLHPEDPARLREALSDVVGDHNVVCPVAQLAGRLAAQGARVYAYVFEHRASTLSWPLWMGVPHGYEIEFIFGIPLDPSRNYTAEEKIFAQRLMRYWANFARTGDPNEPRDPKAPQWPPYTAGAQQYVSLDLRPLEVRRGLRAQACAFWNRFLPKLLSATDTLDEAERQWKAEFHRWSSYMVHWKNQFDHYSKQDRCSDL
Nitric oxide synthase 1, sequence (P29476 whole entry): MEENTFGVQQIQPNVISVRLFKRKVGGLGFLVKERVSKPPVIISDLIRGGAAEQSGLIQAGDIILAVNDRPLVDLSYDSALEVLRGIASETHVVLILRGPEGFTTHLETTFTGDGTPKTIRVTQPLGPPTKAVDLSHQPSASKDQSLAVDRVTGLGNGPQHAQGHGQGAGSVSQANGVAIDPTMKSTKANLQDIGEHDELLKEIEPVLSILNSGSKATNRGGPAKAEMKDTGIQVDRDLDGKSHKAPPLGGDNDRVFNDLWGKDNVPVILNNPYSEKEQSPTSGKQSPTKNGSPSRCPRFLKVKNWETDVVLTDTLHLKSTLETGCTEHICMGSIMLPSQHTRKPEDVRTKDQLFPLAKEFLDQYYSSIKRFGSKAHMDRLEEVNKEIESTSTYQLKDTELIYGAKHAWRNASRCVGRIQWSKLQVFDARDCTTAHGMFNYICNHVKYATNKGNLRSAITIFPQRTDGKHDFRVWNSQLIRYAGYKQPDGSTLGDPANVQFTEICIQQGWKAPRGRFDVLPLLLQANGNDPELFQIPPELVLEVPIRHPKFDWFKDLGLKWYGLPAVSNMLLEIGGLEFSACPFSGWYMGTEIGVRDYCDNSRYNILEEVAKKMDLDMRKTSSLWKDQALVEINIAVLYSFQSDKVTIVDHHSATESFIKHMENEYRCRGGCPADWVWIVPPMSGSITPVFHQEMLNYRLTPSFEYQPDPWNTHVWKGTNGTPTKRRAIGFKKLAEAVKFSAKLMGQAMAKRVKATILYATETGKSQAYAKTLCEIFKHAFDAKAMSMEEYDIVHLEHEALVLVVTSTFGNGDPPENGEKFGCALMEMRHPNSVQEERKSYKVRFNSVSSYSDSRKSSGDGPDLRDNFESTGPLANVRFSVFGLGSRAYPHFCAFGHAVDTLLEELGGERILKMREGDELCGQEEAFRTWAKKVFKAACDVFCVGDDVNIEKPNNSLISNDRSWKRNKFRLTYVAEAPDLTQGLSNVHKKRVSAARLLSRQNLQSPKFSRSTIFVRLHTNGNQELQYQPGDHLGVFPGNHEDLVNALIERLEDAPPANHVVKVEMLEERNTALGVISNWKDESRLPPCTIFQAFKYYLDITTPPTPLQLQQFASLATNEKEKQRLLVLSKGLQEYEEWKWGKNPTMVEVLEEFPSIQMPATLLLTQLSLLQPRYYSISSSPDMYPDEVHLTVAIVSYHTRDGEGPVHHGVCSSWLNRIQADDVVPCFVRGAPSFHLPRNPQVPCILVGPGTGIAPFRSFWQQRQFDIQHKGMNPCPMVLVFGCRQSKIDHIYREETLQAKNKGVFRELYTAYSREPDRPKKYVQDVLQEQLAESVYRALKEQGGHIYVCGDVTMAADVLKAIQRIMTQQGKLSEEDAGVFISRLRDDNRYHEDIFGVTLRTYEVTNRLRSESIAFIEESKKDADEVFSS
Substance-P receptor, sequence (P25103 whole entry): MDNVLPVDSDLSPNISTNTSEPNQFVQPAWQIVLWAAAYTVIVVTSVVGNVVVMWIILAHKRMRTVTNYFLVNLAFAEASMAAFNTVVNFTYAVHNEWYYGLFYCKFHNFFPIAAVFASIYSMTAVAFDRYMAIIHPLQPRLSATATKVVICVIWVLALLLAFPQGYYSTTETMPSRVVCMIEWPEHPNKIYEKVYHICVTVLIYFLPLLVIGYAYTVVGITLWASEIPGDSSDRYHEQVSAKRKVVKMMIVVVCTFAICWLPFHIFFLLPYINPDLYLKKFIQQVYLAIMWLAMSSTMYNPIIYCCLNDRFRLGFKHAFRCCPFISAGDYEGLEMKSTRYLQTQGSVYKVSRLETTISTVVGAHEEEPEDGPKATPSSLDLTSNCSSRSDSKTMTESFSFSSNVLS

Turning to `CC1(C)S[C@@H]2[C@H](NC(=O)[C@H](N)c3ccccc3)C(=O)N2[C@H]1C(=O)O` [AMPICILLIN], the IC50 result in experiment [1], in experiment [2], in experiment [3] (sf9), in experiment [4], in experiment [5] and in experiment [6] was “Not Active” throughout.

As to `Cn1c(=O)c2c(ncn2CC(O)CO)n(C)c1=O` (centres undefined) [DYPHYLLINE], the IC50 entry in experiment [1], in experiment [2], in experiment [3] (sf9), in experiment [4], in experiment [5] and in experiment [6] was “Not Active” in each case.

For `CN(C)[C@@H]1C(O)=C(C(N)=O)C(=O)[C@@]2(O)C(O)=C3C(=O)c4c(O)ccc(Cl)c4[C@@](C)(O)[C@H]3C[C@@H]12` [CHLORTETRACYCLINE], the IC50 result in experiment [1], in experiment [2], in experiment [3] (sf9), in experiment [4], in experiment [5] and in experiment [6] was “Not Active” in each case.

On to `Cn1c(=O)c2[nH]cnc2n(C)c1=O.Cn1c(=O)c2[nH]cnc2n(C)c1=O.NCCN` [AMINOPHYLLINE], for which the IC50 result in experiment [1], in experiment [2], in experiment [3] (sf9), in experiment [4], in experiment [5] and in experiment [6] was “Not Active” throughout.

Consider `C[C@H]1O[C@@H](n2cc(F)c(=O)[nH]c2=O)[C@H](O)[C@@H]1O` [DOXIFLURIDINE], for which the IC50 entry in experiment [1], in experiment [2], in experiment [3] (sf9), in experiment [4], in experiment [5] and in experiment [6] was “Not Active” in each case.

For `CC(C(=O)O)c1ccc2oc(-c3ccc(Cl)cc3)nc2c1` (centres undefined) [BENOXAPROFEN], the IC50 result in experiment [1], in experiment [2], in experiment [3] (sf9), in experiment [4], in experiment [5] and in experiment [6] was “Not Active” in each case.

On to `C#C[C@]1(OC(C)=O)CC[C@H]2[C@@H]3CCC4=C[C@@H](OC(C)=O)CC[C@@H]4[C@H]3CC[C@@]21C` [ETHYNODIOL DIACETATE], for which the IC50 entry in experiment [1], in experiment [2], in experiment [3] (sf9), in experiment [4], in experiment [5] and in experiment [6] was “Not Active” in each case.

On to `CCC(=O)O[C@]1(C(=O)CCl)[C@@H](C)C[C@H]2[C@@H]3CCC4=CC(=O)C=C[C@]4(C)[C@@]3(F)[C@@H](O)C[C@@]21C` [CLOBETASOL PROPIONATE], for which the IC50 result in experiment [1], in experiment [2], in experiment [3] (sf9), in experiment [4], in experiment [5] and in experiment [6] was “Not Active” in each case.

As to `C[C@@H](CO)NC(=O)[C@@H]1C=C2c3cccc4[nH]cc(c34)C[C@H]2N(C)C1` [ERGONOVINE], the IC50 result was “Not Active” in experiment [1]; “Not Active” in experiment [2]; 1680 nM in experiment [3] (read-out: IC50); “Not Active” in experiment [4]; “Not Active” in experiment [5]; “Not Active” in experiment [6]. Further, the Ki in experiment [3] (read-out: Ki) was determined as 630 nM.

In the case of `Nc1ccc2c3c(cccc13)C(=O)NC2=O`, the IC50 result in experiment [1], in experiment [2], in experiment [3] (sf9), in experiment [4], in experiment [5] and in experiment [6] was “Not Active” in each case.

As to `CCN(CC)CCOCCC1=CCC2CC1C2(C)C` (centres undefined) [MYRTECAINE], the IC50 result in experiment [1], in experiment [2], in experiment [3] (sf9), in experiment [4], in experiment [5] and in experiment [6] was “Not Active” throughout.

As for `CC(C)=CCC/C(C)=C/CO` [GERANIOL], the IC50 entry in experiment [1], in experiment [2], in experiment [3] (sf9), in experiment [4], in experiment [5] and in experiment [6] was “Not Active” in each case.

As for `CCCOc1ccc(C(=O)OCCN(CC)CC)cc1N` [PROPARACAINE], the IC50 result in experiment [1], in experiment [2], in experiment [3] (sf9), in experiment [4], in experiment [5] and in experiment [6] was “Not Active” throughout.

Consider `O=C(O)c1cccnc1Nc1cccc(C(F)(F)F)c1` [NIFLUMIC ACID], for which the IC50 entry in experiment [1], in experiment [2], in experiment [3] (sf9), in experiment [4], in experiment [5] and in experiment [6] was “Not Active” throughout.

Regarding `C#CC1(O)CC[C@H]2[C@@H]3CCC4=CC(=O)CC[C@@H]4[C@H]3CC[C@@]21CC` (some centres undefined) [NORGESTREL], the IC50 entry in experiment [1], in experiment [2], in experiment [3] (sf9), in experiment [4], in experiment [5] and in experiment [6] was “Not Active” in each case.

Take `CCCN(CCC)S(=O)(=O)c1ccc(C(=O)O)cc1` [PROBENECID]: the IC50 entry in experiment [1], in experiment [2], in experiment [3] (sf9), in experiment [4], in experiment [5] and in experiment [6] was “Not Active” throughout.

For `O=C1CN=C(c2ccccc2Cl)c2cc([N+](=O)[O-])ccc2N1` [CLONAZEPAM], the IC50 result in experiment [1], in experiment [2], in experiment [3] (sf9), in experiment [4], in experiment [5] and in experiment [6] was “Not Active” each time.

In the case of `CC(C(=O)O)c1cccc(Oc2ccccc2)c1` (centres undefined) [FENOPROFEN], the IC50 result in experiment [1], in experiment [2], in experiment [3] (sf9), in experiment [4], in experiment [5] and in experiment [6] was “Not Active” each time.

With GENTAMICIN, the IC50 result in experiment [1], in experiment [2], in experiment [3] (sf9), in experiment [4], in experiment [5] and in experiment [6] was “Not Active” each time. Besides, the Ki result in experiment [1], in experiment [2], in experiment [3] (sf9), in experiment [4], in experiment [5] and in experiment [6] was “Not Active” each time.

With `CC(=O)Oc1ccc(C(c2ccc(OC(C)=O)cc2)c2ccccn2)cc1` [BISACODYL], the IC50 result in experiment [1], in experiment [2], in experiment [3] (sf9), in experiment [4], in experiment [5] and in experiment [6] was “Not Active” each time.

`C[C@@H]1O[C@@H](O[C@@H]2C=C3CC[C@@H]4[C@H](CC[C@]5(C)[C@@H](c6ccc(=O)oc6)CC[C@]45O)[C@@]3(C)CC2)[C@H](O)[C@H](O)[C@H]1O` [PROSCILLARIDIN]: the IC50 result in experiment [1], in experiment [2], in experiment [3] (sf9), in experiment [4], in experiment [5] and in experiment [6] was “Not Active” each time.

On to `C[C@@H]1C[C@H]2[C@@H]3CCC4=CC(=O)C=C[C@]4(C)[C@@]3(F)[C@@H](O)C[C@]2(C)[C@@]1(O)C(=O)CO` [DEXAMETHASONE], for which the IC50 result in experiment [1], in experiment [2], in experiment [3] (sf9), in experiment [4], in experiment [5] and in experiment [6] was “Not Active” each time.
